# Structures can show the parent of a compound that is named as a salt.
# Biological target: CRBN-DDB1 (Homo sapiens (Human), UniProt Q96SW2)
# Test: Fluorescence polarization (FP) assay for compound ligand binding to CRBN-DDB1
# Settings: FP displacement of (−)-Thalidomide-Alexa Fluor or Pomalidomide-fluorescein probe, 400 nM CRBN-DDB1, 5 nM probe
# Description: Measuring compound ligand binding to CRBN-DDB1 was carried out using an established sensitive and quantitative in vitro fluorescence polarization (FP) based binding assay. […] Compounds were dispensed from serially diluted DMSO stock into black 384-well compatible fluorescence polarization plates using an Echo acoustic dispenser. Compound binding to CRBN-DDB1 was measured by displacement of either a (−)-Thalidomide-Alexa Fluor® or Pomalidomide-fluorescein conjugated probe dye. […] Matching control wells excluding CRBN-DDB1 were used to correct for background fluorescence. Plates were read on an Envision plate reader with appropriate FP filter sets. The corrected S (perpendicular) and P (parallel) values were used to calculate fluorescence polarization (FP) with the following equation: […]
# [1] = Compounds of the Present Invention
# [2] = Additional Compounds of the Present Invention
# Sequence of CRBN-DDB1 (Q96SW2 whole entry): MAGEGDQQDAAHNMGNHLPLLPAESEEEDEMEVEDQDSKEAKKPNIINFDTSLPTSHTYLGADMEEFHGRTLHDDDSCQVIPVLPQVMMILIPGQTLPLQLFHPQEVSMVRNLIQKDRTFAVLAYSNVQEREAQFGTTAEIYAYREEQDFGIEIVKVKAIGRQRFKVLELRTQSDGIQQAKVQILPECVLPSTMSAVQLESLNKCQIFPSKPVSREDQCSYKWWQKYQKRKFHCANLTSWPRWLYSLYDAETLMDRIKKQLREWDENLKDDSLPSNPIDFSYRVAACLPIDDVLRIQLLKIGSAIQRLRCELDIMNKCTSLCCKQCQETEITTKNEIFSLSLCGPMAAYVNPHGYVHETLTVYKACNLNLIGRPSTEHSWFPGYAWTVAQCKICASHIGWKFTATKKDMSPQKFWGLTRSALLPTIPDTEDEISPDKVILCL
# Sequence of CRBN-DDB1 (Q16531 whole entry partner): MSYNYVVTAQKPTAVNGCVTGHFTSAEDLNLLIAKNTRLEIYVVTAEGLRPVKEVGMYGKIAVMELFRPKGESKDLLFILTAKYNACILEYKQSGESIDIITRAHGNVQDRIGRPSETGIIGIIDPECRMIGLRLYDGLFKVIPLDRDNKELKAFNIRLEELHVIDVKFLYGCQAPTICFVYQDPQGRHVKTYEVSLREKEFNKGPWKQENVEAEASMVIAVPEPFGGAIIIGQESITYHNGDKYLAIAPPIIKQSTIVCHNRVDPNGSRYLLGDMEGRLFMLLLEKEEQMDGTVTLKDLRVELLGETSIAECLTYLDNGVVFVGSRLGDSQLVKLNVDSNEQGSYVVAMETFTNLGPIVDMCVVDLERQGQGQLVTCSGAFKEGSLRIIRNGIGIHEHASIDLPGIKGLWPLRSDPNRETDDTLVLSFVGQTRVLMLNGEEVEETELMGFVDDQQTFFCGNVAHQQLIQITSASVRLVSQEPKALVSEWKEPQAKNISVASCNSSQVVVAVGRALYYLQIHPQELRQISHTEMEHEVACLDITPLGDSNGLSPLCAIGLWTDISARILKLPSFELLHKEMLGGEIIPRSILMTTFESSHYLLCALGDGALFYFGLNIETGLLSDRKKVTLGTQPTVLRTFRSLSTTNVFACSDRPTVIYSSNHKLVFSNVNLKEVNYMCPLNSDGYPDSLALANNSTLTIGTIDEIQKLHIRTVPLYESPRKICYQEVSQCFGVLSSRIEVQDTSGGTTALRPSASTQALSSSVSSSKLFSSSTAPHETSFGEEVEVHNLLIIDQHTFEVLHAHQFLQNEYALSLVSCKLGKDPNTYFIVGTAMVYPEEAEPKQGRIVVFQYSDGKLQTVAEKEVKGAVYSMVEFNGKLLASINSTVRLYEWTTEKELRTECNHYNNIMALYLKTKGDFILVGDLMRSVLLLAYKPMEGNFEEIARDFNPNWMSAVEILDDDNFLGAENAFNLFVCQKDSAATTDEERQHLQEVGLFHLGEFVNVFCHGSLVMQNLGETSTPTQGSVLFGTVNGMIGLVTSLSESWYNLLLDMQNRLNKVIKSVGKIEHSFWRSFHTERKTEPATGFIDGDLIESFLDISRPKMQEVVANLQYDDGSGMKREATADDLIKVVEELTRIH
Kd [2] [µM],SMILES,further results
–,COC(=O)c1cccnc1NC1CCC(=O)NC1=O (centres unmarked) [Compound 122],Kd [1]: > 100 µM
–,CN1CCN(c2ccc(OC3CCC(=O)NC3=O)cc2)CC1 (centres unmarked) [Compound 126],Kd [1]: < 10 µM
< 10,"CC(C)(C)OC(=O)N1CCN(c2ccc(OC3CCC(=O)NC3=O)cc2)CC1 (centres unmarked) [Compound 132, 4-[4-(2,6-Dioxo-piperidin-3-yloxy)-phenyl]-piperazine-1-carboxylic acid tert-butyl ester]",–
> 100,"O=C1CCC(OC2CCN(c3ccccc3)CC2)C(=O)N1 (centres unmarked) [Compound 134, 3-(1-Phenyl-piperidin-4-yloxy)-piperidine-2,6-dione]",–
< 10,O=C1CCC(Oc2ccc3ccccc3c2)C(=O)N1 (centres unmarked) [Compound 135],–
> 100,O=C1CCC(Oc2ccccc2C(=O)N2CCCC2)C(=O)N1 (centres unmarked) [Compound 136],–
< 10,CCc1ccc(OC2CCC(=O)NC2=O)cc1 (centres unmarked) [Compound 137],–
< 10,N#Cc1ccc2cc(OC3CCC(=O)NC3=O)ccc2c1 (centres unmarked) [Compound 138],–
< 10,N#Cc1ccc(-c2ccc(OC3CCC(=O)NC3=O)cc2)cc1 (centres unmarked) [Compound 139],–
< 10,Cn1ccc2cc(OC3CCC(=O)NC3=O)ccc21 (centres unmarked) [Compound 140],–
< 10,CCOc1cccc(OC2CCC(=O)NC2=O)c1 (centres unmarked) [Compound 141],–
< 10,CC1(C)Cc2cccc(OC3CCC(=O)NC3=O)c2O1 (centres unmarked) [Compound 145],–
< 10,O=C1CCC(Oc2cccc3cccnc23)C(=O)N1 (centres unmarked) [Compound 147],–
< 10,O=C1CCC(Oc2ccc3c(c2)CCCC3=O)C(=O)N1 (centres unmarked) [Compound 148],–
< 10,O=C1CCC(Oc2ccc3c(c2)OCO3)C(=O)N1 (centres unmarked) [Compound 149],–
< 10,C#Cc1cccc(OC2CCC(=O)NC2=O)c1 (centres unmarked) [Compound 150],–
< 10,CN(C)c1cccc(OC2CCC(=O)NC2=O)c1 (centres unmarked) [Compound 151],–
< 10,O=C1CCC(Oc2ccc(C3CCCC3)cc2)C(=O)N1 (centres unmarked) [Compound 152],–
< 10,CC(=O)CCc1ccc(OC2CCC(=O)NC2=O)cc1 (centres unmarked) [Compound 154],–
< 10,CN1Cc2cc(NC3CCC(=O)NC3=O)ccc2C1=O (centres unmarked) [Compound 160],–
–,"Cc1sc2c(c1C)C(c1ccc(Cl)cc1)=N[C@@H](CC(=O)NCCCCCCCCN1CCN(c3ccc(NC4CCC(=O)NC4=O)cc3)CC1)c1nnc(C)n1-2 (stereo partly drawn) [Degronimer 1, 2-((S)-4-(4-chlorophenyl)-2,3,9-trimethyl-6H-thieno[3,2-f][1,2,4]triazolo[4,3-a][1,4]diazepin-6-yl)-N-(8-(4-(4-((2,6-dioxopiperidin-3-yl)amino)phenyl)piperazin-1-yl)octyl)acetamide]",Kd (Degronimers): < 10 µM
–,"Cc1nnc2n1-c1ccc(-c3cnn(CCCCCCN4CCN(c5ccc(NC6CCC(=O)NC6=O)cc5)CC4)c3)cc1C(c1ccc(Cl)cc1)=NC21CC1 (centres unmarked) [Degronimer 2, 3-((4-(4-(6-(4-(6-(4-chlorophenyl)-1-methylspiro[benzo[f][1,2,4]triazolo[4,3-a][1,4]diazepine-4,1′-cyclopropan]-8-yl)-1H-pyrazol-1-yl)hexyl)piperazin-1-yl)phenyl)amino)piperidine-2,6-dione]",Kd (Degronimers): < 10 µM

SMILES,Kd [2] [µM],further results
"O=C1CCC(Oc2ccc(N3CCNCC3)cc2)C(=O)N1 (centres unmarked) [Compound 133, 3-(4-Piperazin-1-yl-phenoxy)-piperidine-2,6-dione hydrochloride]",< 10,–

# — patent US20230279023A1, “N/O-Linked Degrons and Degronimers for Protein Degradation” (C4 Therapeutics, Inc., priority 2019, published 2023)
